Where “and” joins values, the source holds several entries; their conditions need not be identical. Equal entries are not always repeated. Inconclusive results and toxic doses are left out.
Test system: CD2F1 mice, L1210 leukemia ip, survival T/C
Experiment: NCI In Vivo Anticancer Drug Screen. Data for tumor model L1210 Leukemia (intraperitoneal) in CD2F1 (CDF1) mice
Settings: higher = longer survival
In short: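 Implant tumor; dose compound or vehicle; measure endpoint in both groups; report treated divided by control.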

[1] = endpoint: mean survival time, dose: 100.0 mg/kg/injection, schedule: Q01DX009 (ip), vehicle: saline with Tween-80
[2] = endpoint: mean survival time, dose: 100.0 mg/kg/injection, schedule: Q04DX003 (ip), vehicle: saline with Tween-80
[3] = endpoint: mean survival time, dose: 200.0 mg/kg/injection, schedule: Q01DX009 (ip), vehicle: saline with Tween-80
[4] = endpoint: mean survival time, dose: 200.0 mg/kg/injection, schedule: Q04DX003 (ip), vehicle: saline with Tween-80
[5] = endpoint: mean survival time, dose: 400.0 mg/kg/injection, schedule: Q04DX003 (ip), vehicle: saline with Tween-80
[6] = endpoint: mean survival time, dose: 100.0 mg/kg/injection, schedule: Q01DX001 (ip), vehicle: saline with Tween-80
[7] = endpoint: mean survival time, dose: 200.0 mg/kg/injection, schedule: Q01DX001 (ip), vehicle: saline with Tween-80
[8] = endpoint: mean survival time, dose: 400.0 mg/kg/injection, schedule: Q01DX001 (ip), vehicle: saline with Tween-80
[9] = endpoint: mean survival time, dose: 75.0 mg/kg/injection, schedule: Q01DX001 (ip), vehicle: saline
[10] = endpoint: mean survival time, dose: 150.0 mg/kg/injection, schedule: Q01DX001 (ip), vehicle: saline
[11] = endpoint: mean survival time, dose: 100.0 mg/kg/injection, schedule: Q04DX003 (ip), vehicle: saline
[12] = endpoint: mean survival time, dose: 400.0 mg/kg/injection, schedule: Q01DX009 (ip), vehicle: saline with Tween-80
[13] = endpoint: mean survival time, dose: 25.0 mg/kg/injection, schedule: Q01DX009 (ip), vehicle: saline with Tween-80

## N#Cc1c(F)c(F)cc(F)c1F
[1]
  T/C: 100 % of control
[2]
  T/C: 96 % of control
[3]
  T/C: 96 % of control
[4]
  T/C: 96 % of control
[5]
  T/C: 93 % of control

## CS(=O)(=O)OCC1NC(=O)C(COS(C)(=O)=O)NC1=O (stereo not given)
endpoint: mean survival time, dose: 3.13 mg/kg/injection, schedule: Q01DX009 (ip), vehicle: water
  T/C: 103 % of control
endpoint: mean survival time, dose: 6.25 mg/kg/injection, schedule: Q01DX009 (ip), vehicle: water
  T/C: 101 % of control
endpoint: mean survival time, dose: 12.5 mg/kg/injection, schedule: Q01DX009 (ip), vehicle: water
  T/C: 105 % of control
endpoint: mean survival time, dose: 25.0 mg/kg/injection, schedule: Q01DX009 (ip), vehicle: water
  T/C: 106 % of control
endpoint: mean survival time, dose: 50.0 mg/kg/injection, schedule: Q01DX009 (ip), vehicle: water
  T/C: 101 % of control
endpoint: mean survival time, dose: 100.0 mg/kg/injection, schedule: Q01DX009 (ip), vehicle: water
  T/C: 100 % of control

## CCC1OC(OC)C=CC1=O (stereo not given)
endpoint: median survival time, dose: 12.5 mg/kg/injection, schedule: Q01DX009 (ip), vehicle: saline
  T/C: 100 % of control
endpoint: median survival time, dose: 25.0 mg/kg/injection, schedule: Q01DX009 (ip), vehicle: saline
  T/C: 102 % of control
endpoint: median survival time, dose: 50.0 mg/kg/injection, schedule: Q01DX009 (ip), vehicle: saline
  T/C: 105 % of control
endpoint: median survival time, dose: 100.0 mg/kg/injection, schedule: Q01DX009 (ip), vehicle: saline
  T/C: 102 % of control

## CCCCC(OC(=O)c1ccc([N+](=O)[O-])cc1)C(C)[N+](=O)[O-] (stereo not given)
[2]
  T/C: 104 % of control
[4]
  T/C: 97 % of control
[5]
  T/C: 104 % of control

## O=c1[nH]c(C(Cl)(Cl)Cl)nc2ccc(Cl)cc12
[2]
  T/C: 101 % of control
[4]
  T/C: 96 % of control
[5]
  T/C: 98 % of control

## CCC1(C)CCC2C(CCC3C(C)(C(=O)OC)CCCC23C)C12SCCS2 (stereo not given)
[6]
  T/C: 86 % of control
[7]
  T/C: 89 % of control
[8]
  T/C: 96 % of control

## COc1cc2c(cc1O)C(C)NCC2 (stereo not given)
[9]
  T/C: 109 % of control
[10]
  T/C: 101 % of control

## CC(OC1OC(C(=O)O)C(O)C(O)C1O)c1ccccc1 (stereo not given)
[11]
  T/C: 98 % of control
endpoint: mean survival time, dose: 200.0 mg/kg/injection, schedule: Q04DX003 (ip), vehicle: saline
  T/C: 98 % of control
endpoint: mean survival time, dose: 400.0 mg/kg/injection, schedule: Q04DX003 (ip), vehicle: saline
  T/C: 93 % of control

## Cc1cc(NCCCCCCNc2cc(C)nc3cc(N(C)C)ccc23)c2ccc(N(C)C)cc2n1
endpoint: median survival time, dose: 3.12 mg/kg/injection, schedule: Q01DX009 (ip), vehicle: distilled water + Tween-80 + alcohol
  T/C: 121 % of control
endpoint: median survival time, dose: 25.0 mg/kg/injection, schedule: Q01DX009 (ip), vehicle: distilled water + Tween-80 + alcohol
  T/C: 152 % of control and 158 % of control

## Nc1nc(=O)n(C2OC(CO)C(O)C2O)c2nc[nH]c12 (stereo not given)
endpoint: mean survival time, dose: 6.25 mg/kg/injection, schedule: Q01DX005 (ip), vehicle: water
  T/C: 98 % of control
endpoint: mean survival time, dose: 12.5 mg/kg/injection, schedule: Q01DX005 (ip), vehicle: water
  T/C: 90 % of control
endpoint: mean survival time, dose: 25.0 mg/kg/injection, schedule: Q01DX005 (ip), vehicle: water
  T/C: 88 % of control
endpoint: mean survival time, dose: 50.0 mg/kg/injection, schedule: Q01DX005 (ip), vehicle: water
  T/C: 92 % of control and 93 % of control
endpoint: mean survival time, dose: 100.0 mg/kg/injection, schedule: Q01DX005 (ip), vehicle: water
  T/C: 87 % of control and 90 % of control

## O=C(NC1c2ccccc2-c2ccccc21)C(F)(F)F
[1]
  T/C: 96 % of control
[2]
  T/C: 99 % of control
[3]
  T/C: 97 % of control
[4]
  T/C: 99 % of control
[12]
  T/C: 100 % of control
[5]
  T/C: 97 % of control

## ClC(Cl)c1nc2ccccc2[nH]1
endpoint: mean survival time, dose: 6.25 mg/kg/injection, schedule: Q01DX001 (ip), vehicle: Klucel (hydroxypropylcellulose) (HPC)
  T/C: 89 % of control
endpoint: mean survival time, dose: 12.5 mg/kg/injection, schedule: Q01DX001 (ip), vehicle: Klucel (hydroxypropylcellulose) (HPC)
  T/C: 96 % of control
endpoint: mean survival time, dose: 25.0 mg/kg/injection, schedule: Q01DX001 (ip), vehicle: Klucel (hydroxypropylcellulose) (HPC)
  T/C: 89 % of control

## CCCCOc1ccc(NC(=O)CCl)cc1
[13]
  T/C: 96 % of control
endpoint: mean survival time, dose: 25.0 mg/kg/injection, schedule: Q04DX003 (ip), vehicle: saline
  T/C: 95 % of control
endpoint: mean survival time, dose: 50.0 mg/kg/injection, schedule: Q01DX009 (ip), vehicle: saline with Tween-80
  T/C: 96 % of control
endpoint: mean survival time, dose: 50.0 mg/kg/injection, schedule: Q04DX003 (ip), vehicle: saline
  T/C: 101 % of control
[11]
  T/C: 94 % of control

## O=C1C(=O)C(Cl)=C(Cl)C(Cl)=C1Cl
endpoint: mean survival time, dose: 12.5 mg/kg/injection, schedule: Q01DX009 (ip), vehicle: saline with Tween-80
  T/C: 96 % of control
endpoint: mean survival time, dose: 12.5 mg/kg/injection, schedule: Q04DX003 (ip), vehicle: saline with Tween-80
  T/C: 93 % of control
[13]
  T/C: 92 % of control
endpoint: mean survival time, dose: 25.0 mg/kg/injection, schedule: Q04DX003 (ip), vehicle: saline with Tween-80
  T/C: 104 % of control
endpoint: mean survival time, dose: 50.0 mg/kg/injection, schedule: Q04DX003 (ip), vehicle: saline with Tween-80
  T/C: 104 % of control

## CC(N)C(=O)NC(C(=O)O)C(C)O (stereo not given)
endpoint: mean survival time, dose: 25.0 mg/kg/injection, schedule: Q01DX009 (ip), vehicle: saline
  T/C: 102 % of control
endpoint: mean survival time, dose: 50.0 mg/kg/injection, schedule: Q01DX009 (ip), vehicle: saline
  T/C: 103 % of control
endpoint: mean survival time, dose: 100.0 mg/kg/injection, schedule: Q01DX009 (ip), vehicle: saline
  T/C: 105 % of control
endpoint: mean survival time, dose: 200.0 mg/kg/injection, schedule: Q01DX009 (ip), vehicle: saline
  T/C: 98 % of control
endpoint: mean survival time, dose: 400.0 mg/kg/injection, schedule: Q01DX009 (ip), vehicle: saline
  T/C: 98 % of control

## O=C(NC1CCCC2CCCCC21)c1ccccc1 (stereo not given)
[6]
  T/C: 90 % of control
[7]
  T/C: 88 % of control
[8]
  T/C: 90 % of control

## N#CC1c2ccccc2C=NN1C(=O)N(c1ccccc1)c1ccccc1 (stereo not given)
endpoint: mean survival time, dose: 100.0 mg/kg/injection, schedule: Q04DX003 (ip), vehicle: other
  T/C: 103 % of control
endpoint: mean survival time, dose: 200.0 mg/kg/injection, schedule: Q04DX003 (ip), vehicle: other
  T/C: 105 % of control
endpoint: mean survival time, dose: 400.0 mg/kg/injection, schedule: Q04DX003 (ip), vehicle: other
  T/C: 105 % of control

## COc1cccc2c1C(=O)c1c(O)c3c(c(O)c1C2=O)C[C@@](O)(C(=O)COC(=O)c1ccccc1)C[C@@H]3OC1CC(N)C(O)C(C)O1 (stereo not given in full)
endpoint: mean survival time, dose: 0.5 mg/kg/injection, schedule: Q01DX009 (ip), vehicle: saline sonified
  T/C: 122 % of control
endpoint: mean survival time, dose: 1.3 mg/kg/injection, schedule: Q04DX003 (ip), vehicle: Klucel (hydroxypropylcellulose) (HPC)
  T/C: 124 % of control

## C1CCC2C(C1)CC1CCCCC1C2C1C2CCCCC2CC2CCCCC21 (stereo not given)
[2]
  T/C: 97 % of control
[4]
  T/C: 100 % of control
[5]
  T/C: 96 % of control

## Cc1ccccc1N=C(N)Nc1ccccc1C
endpoint: mean survival time, dose: 10.0 mg/kg/injection, schedule: Q04DX003 (ip), vehicle: saline with Tween-80
  T/C: 98 % of control

## COC1CCC(/C(C#N)=C/C2CCC(OC)C(OC)C2)CC1 (stereo not given)
endpoint: mean survival time, dose: 100.0 mg/kg/injection, schedule: Q04DX002 (ip), vehicle: saline with Tween-80
  T/C: 94 % of control
endpoint: mean survival time, dose: 200.0 mg/kg/injection, schedule: Q04DX002 (ip), vehicle: saline with Tween-80
  T/C: 94 % of control
endpoint: mean survival time, dose: 400.0 mg/kg/injection, schedule: Q04DX002 (ip), vehicle: saline with Tween-80
  T/C: 94 % of control

## Cn1nc(N)c2ncc(-c3ccc(Cl)cc3)nc21
endpoint: mean survival time, dose: 100.0 mg/kg/injection, schedule: Q04DX003 (ip), vehicle: alcohol
  T/C: 91 % of control
endpoint: mean survival time, dose: 200.0 mg/kg/injection, schedule: Q04DX003 (ip), vehicle: alcohol
  T/C: 89 % of control
endpoint: mean survival time, dose: 400.0 mg/kg/injection, schedule: Q04DX003 (ip), vehicle: alcohol
  T/C: 91 % of control

## C/C=C(/CCCCC)C(=O)OCC
[1]
  T/C: 106 % of control
[3]
  T/C: 100 % of control
[12]
  T/C: 101 % of control

## O=C1C=CC(c2ccccc2)(c2ccccc2)C=C1
[6]
  T/C: 93 % of control
[8]
  T/C: 86 % of control

## CCOC(=O)C(C)(C)C(OP(=O)(OCC)OCC)=C(C)C
[9]
  T/C: 103 % of control
[10]
  T/C: 97 % of control
endpoint: mean survival time, dose: 300.0 mg/kg/injection, schedule: Q01DX001 (ip), vehicle: saline
  T/C: 100 % of control

## [O-][n+]1c2cccc(O)c2[n+]([O-])c2cccc(O)c21
[2]
  T/C: 91 % of control
[4]
  T/C: 100 % of control
[5]
  T/C: 103 % of control

## CC1(C)C=C(Cc2ccccc2)C(=O)c2ccccc21
[1]
  T/C: 94 % of control
[2]
  T/C: 96 % of control
[3]
  T/C: 97 % of control
[4]
  T/C: 100 % of control
[12]
  T/C: 97 % of control
[5]
  T/C: 97 % of control

## NC(CS/C=C\C(=O)O)C(=O)O (stereo not given)
[2]
  T/C: 101 % of control
[5]
  T/C: 93 % of control

## CCC(=O)OCCNc1cc(C(N)=O)c([N+](=O)[O-])cc1[N+](=O)[O-]
[6]
  T/C: 105 % of control
[7]
  T/C: 92 % of control
[8]
  T/C: 97 % of control
